Laboratory results: patent US4107158A, “Process for making an octapeptide useful for the treatment of diabetes” (Choay S.A., priority 1974, dated 1978)
Where no end group is shown, it is not given here.

What was measured:
[1] = system: isolated hemidiaphragm of the rat; assay: Consumption of glucose in vitro, isolated rat hemidiaphragm; format: cell-based, Wistar albino male rats
Procedure: To follow this consumption, the isolated hemidiaphragm of the rat in vitro was used. The method employed is that described by Park et al. (Effect of insulin on free glucose content of rat diaphragm in vitro -- Amer. J. Physiol. 182 : 12 - 16, 1955). The hemidiaphragm derived from Wistar albino male rats each weighing 200 to 250 g was used. The rats were fed freely for 7 days and then starved for 24 hours. The solutions studied contained 2 mg/ml of glucose, 500 μU/ml of insulin. The compound (I) was introduced at 250 μg/ml. The consumption of glucose related to the weight of tissue in grams and per hour was under these conditions: […]

[2] = system: diabetic rats; assay: Effect on glycemia in diabetic animals; format: in vivo; settings: glucose 0.5 g/kg; for course of glycemia after simultaneous injection with glucose: diabetic rats fasted 4 hours, octapeptide 2 μg/g
Procedure: In this test, the drop in glycemia was compared after the simultaneous injection of glucose, on the one hand, and, on the other hand, either of the octapeptide at the dosage of 2 μg (I), or of insulin, or again of both at once. In that latter case the dosage of octapeptide used was also 2μg/g. The tests were carried out on diabetic rats, kept fasting for 4 hours before the injection of glucose (at the dose of 0.5 g/kg of animal).

[3] = system: hepatic cells; assay: Insulin binding to hepatic cells; format: cell-based
Procedure: In the same way, the ratio of insulin binding to hepatic cells placed in a suitable reaction medium was measured. When the medium contains octapeptide (I), the ratio of insulin binding to the hepatic cells increases. The result is similar if the said cells are incubated with octapeptide (I).

[4] = system: glucose receptors of the Langerhans islets; assay: Glucose-stimulated insulin liberation from Langerhans islets of treated animals; format: cell-based; settings: islets removed one day or four days after injection of octapeptide; versus controls
Procedure: Finally, the effect of the octapeptide (I) on the glucose receptors of the Langerhans islets was determined. For this purpose, the octapeptide (I) was injected into animals.
One day or four days later, the animals were killed and the islets of Langerhans removed. The latter were placed in a reaction medium supplemented with glucose, and the amount of insulin liberated was determined and compared tocontrols.

[5] = system: insulin receptors of lipid cells; assay: Insulin binding to trypsinated lipid cells; format: cell-based; settings: octapeptide introduced into the medium; trypsinated cells alone no longer fix insulin
Text: In an attempt to elucidate the mechanism of action of the octapeptide (I) with respect to insulin, the phenomena were first studied at the level of the insulin receptors of lipid cells trypsinated to destroy said receptors.

[6] = system: mice; assay: Tolerance: acute and subacute toxicity study in mice; format: in vivo; settings: 1 month, daily dosages 5 to 10 times the active dosage
Procedure: An acute and subacute toxicity study was carried out on mice for 1 month, each mouse receiving daily dosages corresponding to 5 to 10 times the active dosage.

[7] = biological target: glyceraldehyde 3-phosphate dehydrogenase (Homo sapiens, UniProt P04406); assay: Enzymatic effect in vitro: lifting of somantine inhibition of glyceraldehyde 3-phosphate dehydrogenase; format: biochemical
Procedure: In this test, the compound (I) was tested for its ability to raise the inhibition of a somantine extracted from a plasma with respect to the action of glyceraldehyde 3-phosphate dehydrogenase.
To this end, the activity of the enzyme in the presence successively of somantine alone, of the compound (1) alone, and finally in the presence of somantine and of the compound (I), were measured.
In this test, the glyceraldehyde 3-phosphate dehydrogenase was used at a concentration of […], the somantine at 25 μg/ml, and the compound (I) at 50 μg/ml.
The method used for the measurements is that of Pihl and Lang (J. Biol. Chem 237 : 1356 - 1362, 1962).
The percentage of inhibition of the enzyme found under these conditions is as follows: […]

[8] = system: adult rabbits; assay: Effect on the in vivo effect of insulin: intravenous glucose tolerance in the rabbit
Procedure: The assays were carried out in the course of the tests carried out to determine the resistance to glucose injected by the intravenous route in the rabbit.
These tests were done on adult rabbits, which had been subjected to prior fasting for 24 hours. Blood was drawn off and the glucose level in the blood samples was determined. The measurement was carried out by the ferricyanide method as adapted for the "Technicon Autoanalyser" (J. Biol. Chem. 120 : 51 - 55, 1937). In this way the glucose level on fasting, then its variation after the intravenous injection of glucose, at the dose of 1 gram per kilo, was determined. These measurements were then renewed in rabbits which had received, 5 minutes after the glucose, an intravenous injection of the compound (1) (5μg/kg).

[9] = system: mice; assay: Influence on glycemia in mice after glucose injection; format: in vivo
Text: d. Influence of octapeptide (I) on glycemia has been determined in mice under conditions similar to those described for rabbits. The experiment included two series of tests aimed at studying the immediate effects and the prolonged effects.
In the first series of tests, a simultaneous injection of glucose and of the octapeptide (1) was made, and the lowering of glycemia with respect to that of control animals which had not received glucose, was followed as a function of time.
The injections were respectively of 0.25 g of glucose and 2 mg per kilo of body weight of the animal, namely about 40 μg, of octapeptide (I) or […].
In the second series of tests, the mice received the product before the injection of glucose. Three injections each of 40μg of octapeptide (1) were administered respectively 72, 48 and 24 hous before the injection of glucose.

Chain of glyceraldehyde 3-phosphate dehydrogenase (P04406 whole entry, species assumed): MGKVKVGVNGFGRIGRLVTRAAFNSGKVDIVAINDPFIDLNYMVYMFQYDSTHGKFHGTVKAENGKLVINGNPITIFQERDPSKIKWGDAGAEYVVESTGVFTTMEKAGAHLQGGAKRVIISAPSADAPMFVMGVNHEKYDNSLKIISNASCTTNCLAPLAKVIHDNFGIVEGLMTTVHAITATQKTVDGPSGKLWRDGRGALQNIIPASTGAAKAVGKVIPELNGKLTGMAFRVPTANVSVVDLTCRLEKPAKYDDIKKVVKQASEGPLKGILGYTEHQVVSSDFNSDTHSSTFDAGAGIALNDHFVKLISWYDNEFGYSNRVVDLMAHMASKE

| Substance | Consumption of glucose ([1]; related to weight of tissue in grams and per hour, glucose 2 mg/ml, insulin 500 μU/ml, compound (I) 250 μg/ml) | course of glycemia after simultaneous injection with glucose [2] | time after which glycemia rises again ([2]; diabetic rats) | ratio of insulin binding to hepatic cells ([3]; cells incubated with octapeptide (I)) | ratio of insulin binding to hepatic cells ([3]; medium contains octapeptide (I)) | consumption of glucose in the presence of insulin (in words) ([1]; compound (I) 250 μg/ml added to glucose + insulin) | level of insulin liberated by Langerhans islets in glucose-supplemented medium [4] | insulin binding to trypsinated lipid cells [5] | toxic effect, macro and microscopic studies [6] | effect on the inhibiting effect of somantine (in words) ([7]; compound (I) 50 μg/ml together with somantine 25 μg/ml) | effect on the activity of the enzyme (in words) ([7]; compound (I) alone, 50 μg/ml) | inhibition at 50 µg/mL ([7]; enzyme 0.5 μml, somantine 25 μg/ml, compound (I) 50 μg/ml, read-out: percentage of inhibition of the enzyme) | glucose level reached, compared with fasting level ([8]; glucose 1 g/kg i.v., compound 5 μg/kg i.v.) | decrease in the glucose level after i.v. glucose ([8]; glucose 1 g/kg i.v., compound 5 μg/kg i.v. 5 minutes after glucose, versus rabbits without compound) | persistence of effect on the carbohydrate metabolism after injection ([8]; similar tests at intervals of several days) | drop in glycemia, immediate effect ([9]; simultaneous injection of glucose and about 40 μg octapeptide, versus controls) | drop in glycemia, prolonged effect ([9]; three injections of 40 μg at 72, 48 and 24 hours before glucose, versus controls receiving only glucose) |
| --- | --- | --- | --- | --- | --- | --- | --- | --- | --- | --- | --- | --- | --- | --- | --- | --- | --- |
| insulin: insulin, 500 μU/ml in glucose solution in the hemidiaphragm test | 4.10 ± 0.15 mg | decreases rapidly, stabilises, then rises again | about 120 minutes | – | – | – | – | – | – | – | – | – | – | – | – | – | – |
| LSRLFDNA [compound (I), leucyl--seryl--arginyl--leucyl--phenylalanyl--aspartyl--asparaginyl-alanine] | – | practically unmodified | – | similar | increases | increased | very substantial increase | the binking reasppears | not shown any toxic effect | partly suppressed | practically without effect | 1% | less than those which were measured in the fasting rabbits | greater | persists several days | distinctly more accentuated | more rapid drop in glycemia |
